target: T1, GCase (Homo sapiens, UniProt P04062); assay: activation of GCase in a live cell PFB assay in HELA cells; format: cell-based; conditions: activation of GCase, EC50 ranges
T1 construct: endogenous in cells; host or cells: HeLa cells
T1 sequence (P04062 40-536): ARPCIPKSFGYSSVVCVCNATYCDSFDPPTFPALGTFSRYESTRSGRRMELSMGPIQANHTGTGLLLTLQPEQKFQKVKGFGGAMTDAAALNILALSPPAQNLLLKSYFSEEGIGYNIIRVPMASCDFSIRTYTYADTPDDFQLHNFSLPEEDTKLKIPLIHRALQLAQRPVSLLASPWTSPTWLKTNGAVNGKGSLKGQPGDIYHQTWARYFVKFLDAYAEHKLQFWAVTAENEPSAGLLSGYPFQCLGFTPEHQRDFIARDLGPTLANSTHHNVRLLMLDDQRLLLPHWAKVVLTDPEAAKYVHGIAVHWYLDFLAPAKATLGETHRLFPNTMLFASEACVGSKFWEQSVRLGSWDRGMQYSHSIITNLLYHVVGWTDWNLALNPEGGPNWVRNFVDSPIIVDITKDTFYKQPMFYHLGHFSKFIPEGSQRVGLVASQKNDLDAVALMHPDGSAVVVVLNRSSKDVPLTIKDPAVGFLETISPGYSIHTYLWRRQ
Experimental: Exemplary compounds were evaluated for activation of GCase in a live cell PFB assay in HELA cells (essentially as described in Ysselstein et al., “LRRK2 kinase activity regulates lysosomal glucocerebrosidase in neurons derived from Parkinson's disease patients” Nature Communications (2019) 10:5570). […] EC50 ranges: A: <10 μM; B: >10-50 μM; C: >50-100 μM; D: >100 μM.

| Compound | EC50 [µM] |
| --- | --- |
| CCc1nccn1-c1cncc(N2CCC3(CC2)CCN(c2cc(C(F)(F)F)ccn2)C3=O)n1 [Cmpd 262] | < 10 |
| CCc1nccn1-c1cncc(N2CCC3(CCN(c4ccc(C(F)(F)F)nc4)C3)CC2)n1 [Cmpd 263] | < 10 |
| O=C1N(c2cc(C(F)(F)F)ccn2)CCC12CCN(c1nccn3cncc13)CC2 [Cmpd 264] | > 100 |
| CC1CC2(CCN(c3cnc4cnn(CC(F)F)c4n3)CC2)CN1c1ccc(C(F)(F)F)nc1 (stereo not shown) [Cmpd 265] | 10 to 50 |
| FC(F)Cn1ncc2ncc(N3CCC4(CCN(c5ccc(C(F)(F)F)nc5)C4)C(F)(F)C3)nc21 (stereo not shown) [Cmpd 266] | < 10 |
| Cc1cccc(-c2noc(C)c2C(=O)N2CCC3(CC2)CCN(c2cc(C(F)(F)F)ccn2)C3=O)c1 [Cmpd 267] | 10 to 50 |
| Cc1cc(F)cc(-n2cc(C(=O)N3CCC4(CC3)CCN(c3cc(C(F)(F)F)ccn3)C4=O)nn2)c1 [Cmpd 268] | 10 to 50 |
| O=C(c1nc2ccccc2cc1C1CC1)N1CCC2(CC1)CCN(c1cc(C(F)(F)F)ccn1)C2=O [Cmpd 269] | 10 to 50 |
| Cc1cn(-c2ccccc2)nc1C(=O)N1CCC2(CC1)CCN(c1cc(C(F)(F)F)ccn1)C2=O [Cmpd 270] | 10 to 50 |
| Cc1nn(CC(F)F)c2nc(N3CCC4(CC3)CCN(c3cncc(C(F)(F)F)n3)C4=O)cnc12 [Cmpd 271] | 10 to 50 |
| O=C1N(c2cncc(C(F)(F)F)n2)CCC12CCN(c1cnc3cnn(CC(F)(F)F)c3n1)CC2 [Cmpd 272] | 10 to 50 |
| O=C1N(c2cc(C(F)(F)F)ccn2)CCC12CCN(c1cnc3cnn(C4COC4)c3n1)CC2 [Cmpd 273] | 10 to 50 |
| O=C1CC2(CCN(c3cnc4cnn(CC(F)F)c4n3)CC2)CN1c1cncc(C(F)(F)F)n1 [Cmpd 274] | < 10 |
| O=C1CC2(CCN(c3cnc4cnn(CC(F)F)c4n3)CC2)CN1c1nccc(C(F)(F)F)n1 [Cmpd 275] | < 10 |
| O=C1N(c2cncc(C(F)(F)F)n2)CCC12CCN(c1cnc3cnn(C4COC4)c3n1)CC2 [Cmpd 276] | 10 to 50 |
| O=C1CC2(CCN(c3cnc4cnn(C5COC5)c4n3)CC2)CN1c1cncc(C(F)(F)F)n1 [Cmpd 277] | 10 to 50 |
| O=C1N(c2nccc(C(F)(F)F)n2)CCC12CCN(c1cnc3cnn(C4COC4)c3n1)CC2 [Cmpd 278] | < 10 |
| O=C1CC2(CCN(c3cnc4cnn(C5COC5)c4n3)CC2)CN1c1nccc(C(F)(F)F)n1 [Cmpd 279] | < 10 |
| Cc1nn(CC(F)F)c2nc(N3CCC4(CC3)CC(=O)N(c3cncc(C(F)(F)F)n3)C4)cnc12 [Cmpd 280] | 10 to 50 |
| Cc1nn(CC(F)F)c2nc(N3CCC4(CC3)CCN(c3nccc(C(F)(F)F)n3)C4=O)cnc12 [Cmpd 281] | < 10 |
| Cc1nn(CC(F)F)c2nc(N3CCC4(CC3)CC(=O)N(c3nccc(C(F)(F)F)n3)C4)cnc12 [Cmpd 282] | < 10 |
| Cc1nn(CC(F)F)c2nc(N3CCC4(CC3)CC(=O)N(c3cc(C(F)(F)F)ccn3)C4)cnc12 [Cmpd 283] | < 10 |
| O=C1CC2(CCN(c3cnc4cnn(C5COC5)c4n3)CC2)CN1c1cc(C(F)(F)F)ccn1 [Cmpd 284] | 50 to 100 |
| O=C1N(c2cc(C(F)(F)F)ccn2)CCC12CCN(c1ncc3cnn(CC(F)F)c3n1)CC2 [Cmpd 285] | 10 to 50 |

| Compound | EC50 [µM] |
| --- | --- |
| O=C1CC2(CCN(c3ncc4cnn(CC(F)F)c4n3)CC2)CN1c1cc(C(F)(F)F)ccn1 [Cmpd 286] | < 10 |
| O=C1N(c2cncc(C(F)(F)F)n2)CCC12CCN(c1ncc3cnn(CC(F)F)c3n1)CC2 [Cmpd 287] | > 100 |
| O=C1CC2(CCN(c3ncc4cnn(CC(F)F)c4n3)CC2)CN1c1cncc(C(F)(F)F)n1 [Cmpd 288] | 10 to 50 |
| O=C1N(c2nccc(C(F)(F)F)n2)CCC12CCN(c1ncc3cnn(CC(F)F)c3n1)CC2 [Cmpd 289] | 10 to 50 |
| O=C1CC2(CCN(c3ncc4cnn(CC(F)F)c4n3)CC2)CN1c1nccc(C(F)(F)F)n1 [Cmpd 290] | < 10 |
| O=C1N(c2ccc(C(F)(F)F)nc2)C(c2ccccc2)CC12CCN(c1cnc3cnn(CC(F)F)c3n1)CC2 (stereo not shown) [Cmpd 291] | < 10 |
| O=C1CC2(CCN(c3cnc4cnn(CC(F)F)c4n3)CC2)CCN1c1ccc(C(F)(F)F)cn1 [Cmpd 293] | 10 to 50 |
| O=C1CCC2(CCN(c3cnc4cnn(CC(F)F)c4n3)CC2)CN1c1ccc(C(F)(F)F)cn1 [Cmpd 294] | 10 to 50 |
| FC(F)Cn1ncc2cnc(N3CCC4(CN(c5ccnc(C(F)(F)F)c5)C4)C3)nc21 [Cmpd 295] | 10 to 50 |
| Cc1nn(CC(F)F)c2nc(N3CCC4(CN(c5ccnc(C(F)(F)F)c5)C4)C3)ncc12 [Cmpd 296] | < 10 |
| COc1nc(N2CCC3(CN(c4ccnc(C(F)(F)F)c4)C3)C2)nc2c1cnn2CC(F)F [Cmpd 297] | 10 to 50 |
| FC(F)Cn1ncc2ncc(N3CCC4(CN(c5cncc(C(F)(F)F)n5)C4)C3)nc21 [Cmpd 298] | > 100 |
| FC(F)Cn1ncc2ncc(N3CCC4(C3)CN(c3nccc(C(F)(F)F)n3)C4)nc21 [Cmpd 299] | 10 to 50 |
| CC(C)N1C(=O)N(c2cc(C(F)(F)F)ccn2)C(=O)C12CN(c1cnc3cnn(CC(F)F)c3n1)C2 [Cmpd 300] | 50 to 100 |
| Cc1nn(CC(F)F)c2nc(N3CCC4(CC3)CCN(c3cc(C(F)(F)F)ccn3)C4=O)ncc12 [Cmpd 301] | 10 to 50 |
| Cc1nn(CC(F)F)c2nc(N3CCC4(CC3)CC(=O)N(c3cc(C(F)(F)F)ccn3)C4)ncc12 [Cmpd 302] | < 10 |
| COc1nc(N2CCC3(CC2)CCN(c2cc(C(F)(F)F)ccn2)C3=O)nc2c1cnn2CC(F)F [Cmpd 303] | < 10 |
| COc1nc(N2CCC3(CC2)CC(=O)N(c2cc(C(F)(F)F)ccn2)C3)nc2c1cnn2CC(F)F [Cmpd 304] | < 10 |
| O=C1CC2(CCN(c3cnc4cnn(CC(F)F)c4n3)CC2)CN1c1cnc(C(F)(F)F)nc1 [Cmpd 305] | 10 to 50 |
| O=C1N(c2cnc(C(F)(F)F)nc2)CCC12CCN(c1cnc3cnn(CC(F)F)c3n1)CC2 [Cmpd 306] | 10 to 50 |
| O=C1CC2(CCN(c3cnc4cnn(CC(F)F)c4n3)CC2)CN1Cc1ccc(C(F)(F)F)nc1 [Cmpd 307] | < 10 |
| O=C1N(Cc2ccc(C(F)(F)F)nc2)CCC12CCN(c1cnc3cnn(CC(F)F)c3n1)CC2 [Cmpd 308] | 10 to 50 |
| O=C1CC2(CCN(c3cnc4cnn(CC(F)F)c4n3)CC2)CN1Cc1ccc(C(F)(F)F)cn1 [Cmpd 309] | 10 to 50 |
| O=C1N(Cc2ccc(C(F)(F)F)cn2)CCC12CCN(c1cnc3cnn(CC(F)F)c3n1)CC2 [Cmpd 310] | 10 to 50 |

| Compound | EC50 [µM] |
| --- | --- |
| O=C1N(c2cc(C(F)(F)F)ccn2)C2(CC2)CC12CCN(c1cnc3cnn(CC(F)F)c3n1)CC2 [Cmpd 311] | 10 to 50 |
| O=C1N(c2ccc(C(F)(F)F)cn2)C2(CC2)CC12CCN(c1cnc3cnn(CC(F)F)c3n1)CC2 [Cmpd 312] | 50 to 100 |
| O=C(c1ccc(C(F)(F)F)nc1)N1CCC2(CCN(c3cnc4cnn(CC(F)F)c4n3)CC2)C1 [Cmpd 313] | 10 to 50 |
| O=C(c1ccc(C(F)(F)F)cn1)N1CCC2(CCN(c3cnc4cnn(CC(F)F)c4n3)CC2)C1 [Cmpd 314] | > 100 |
| O=C1CCC2(CN(c3cnc4cnn(CC(F)F)c4n3)C2)CN1c1ccc(C(F)(F)F)cn1 [Cmpd 315] | 10 to 50 |
| FC(F)Cn1ncc2ncc(N3CCC4(CN(c5cnc(C(F)(F)F)nc5)C4)C3)nc21 [Cmpd 316] | 10 to 50 |
| FC(F)Cn1ncc2ncc(N3CCC4(CN(c5cnc(C(F)(F)F)cn5)C4)C3)nc21 [Cmpd 317] | 10 to 50 |
| FC(F)Cn1ncc2ncc(N3CCC4(CN(c5ccnc(C(F)(F)F)n5)C4)C3)nc21 [Cmpd 318] | 10 to 50 |
| FC(F)Cn1ncc2ncc(N3CCC4(C3)CN(c3ncc(C(F)(F)F)cn3)C4)nc21 [Cmpd 319] | 10 to 50 |
| FC(F)Cn1ncc2ncc(N3CCC4(CN(Cc5ccc(C(F)(F)F)nc5)C4)C3)nc21 [Cmpd 320] | < 10 |
| FC(F)Cn1ncc2ncc(N3CCC4(CN(Cc5ccc(C(F)(F)F)cn5)C4)C3)nc21 [Cmpd 321] | < 10 |
| O=C(c1ccc(C(F)(F)F)nc1)N1CC2(CCN(c3cnc4cnn(CC(F)F)c4n3)C2)C1 [Cmpd 322] | 10 to 50 |
| O=C(c1ccc(C(F)(F)F)cn1)N1CC2(CCN(c3cnc4cnn(CC(F)F)c4n3)C2)C1 [Cmpd 323] | > 100 |
| O=C(c1cnc(C(F)(F)F)nc1)N1CCC2(CCN(c3cnc4cnn(CC(F)F)c4n3)CC2)C1 [Cmpd 324] | 10 to 50 |
| O=C(c1cnc(C(F)(F)F)nc1)N1CC2(CCN(c3cnc4cnn(CC(F)F)c4n3)C2)C1 [Cmpd 325] | 10 to 50 |
| O=C(c1cnc(C(F)(F)F)nc1)N1CC2(CCN(c3cnc4cnn(CC(F)F)c4n3)CC2)C1 [Cmpd 326] | 10 to 50 |
| O=C(c1ccc(C(F)(F)F)nc1)N1CC2(CCN(c3cnc4cnn(CC(F)F)c4n3)CC2)C1 [Cmpd 327] | 10 to 50 |
| O=C(c1ccc(C(F)(F)F)cn1)N1CC2(CCN(c3cnc4cnn(CC(F)F)c4n3)CC2)C1 [Cmpd 328] | 10 to 50 |
| O=C(c1cnc(C(F)(F)F)nc1)N1CCC2(CC1)CN(c1cnc3cnn(CC(F)F)c3n1)C2 [Cmpd 329] | 10 to 50 |
| O=C(c1ccc(C(F)(F)F)cn1)N1CCC2(CC1)CN(c1cnc3cnn(CC(F)F)c3n1)C2 [Cmpd 330] | 10 to 50 |
| O=C1N(Cc2cncc(F)c2)CCC12CCN(c1cnc3cnn(CC(F)F)c3n1)CC2 [Cmpd 331] | 10 to 50 |
| O=C1N(Cc2cncc(C(F)(F)F)c2)CCC12CCN(c1cnc3cnn(CC(F)F)c3n1)CC2 [Cmpd 332] | < 10 |
